In US20240216357A1 (SICHUAN HUIYU PHARMACEUTICAL CO., LTD., priority 2021, published 2024):
Counter-ions that a name gives are not always drawn. Like-named read-outs stand apart in the source and are kept apart here.

Legend:
LSD1 = LSD1 (Homo sapiens (Human), UniProt O60341); assay: LSD1 enzyme activity detection (HTRF); format: biochemical; settings: read-out: Inhibition of enzymatic activity of LSD1 IC50
NCI-H1417 cells = assay: In vitro cell proliferation detection (CellTiter-Glo, 7 days); format: cell-based; settings: Homo sapiens, 168 h; NCI-H1417 cells, 7 days, CellTiter-Glo; read-out: NCI-H1417 proliferation inhibition IC50

Row | SMILES | IC50 (LSD1; HTRF, H3K4me1 substrate) | IC50 (NCI-H1417 cells) | IC50 (LSD1)
1 | COc1ccc(-c2cnc(N3CCC[C@@H](N)C3)c(C#N)c2-c2ccc(C#N)c(F)c2)cc1O [Example 78, (R)-2-(3-aminopiperidin-1-yl)-4-(4-cyano-3-f1uorophenyl)-5-(3-hydroxy-4-methoxyphenyl) nicotinonitrile] | 1.6 ± 0.3 nM | 2.53 nM | 
2 | Cc1noc2cc(-c3oc(C(=O)N4C5CCC4CC(N)C5)nc3-c3ccc(C#N)c(F)c3)c(F)cc12 (stereo not shown) [Example 222, 4-(2-(3-amino-8-azabicyclo[3.2.1]octane-8-carbonyl)-5-(5-fluoro-3-methylbenzo[d]isoxazol-6-yl)oxazol-4-yl)-2-fluorobenzonitrile hydrochloride] | 14.4 nM | 41 nM | 
3 | COc1ccc(-c2cnc(N3CCC(N)C(F)C3)c(C#N)c2-c2ccc(C#N)c(F)c2)cc1O (stereo not shown) [Example 77, 2-(4-amino-3-fluoropiperidin-1-yl)-4-(4-cyano-3-fluorophenyl)-5-(3-hydroxy-4-methoxyphenyl) nicotinonitrile] | 2.4 ± 0.9 nM | 2.19 nM | 
4 | COc1cc(N2CCC(N)CC2)nc(-c2ccc(C#N)c(F)c2)c1-c1ccc(C(F)(F)F)c(O)c1 [Example 99, 4-(6-(4-aminopiperidin-1-yl)-3-(3-hydroxy-4-(trifluoromethyl)phenyl)-4-methoxypyridin-2-yl)-2-fluorobenzonitrile hydrochloride] | 4.9 ± 1.2 nM | 1.72 nM | 
5 | O=C(O)C1CCN(C(=O)c2cc(CN[C@@H]3C[C@H]3c3ccc(F)cc3)nc(-c3ccc(-n4cccn4)cc3)n2)CC1 [Example 234] | 165 ± 8 nM | 31 ± 8 nM | 
6 | Cc1noc2cc(-c3oc(C(=O)N4C5CCC4CC(N)C5)cc3-c3ccc(C#N)c(F)c3)c(F)cc12 (stereo not shown) [Example 219, 4-(5-(3-amino-8-azabicyclo[3.2.1]octane-8-carbonyl)-2-(5-fluoro-3-methylbenzo[d]isoxazol-6-yl)furan-3-yl)-2-fluorobenzonitrile hydrochloride] |  | 95.3 nM | 7.3 ± 0.46 nM
7 | Cc1ccc(-c2c(-c3ccc(C#N)cc3)cc3c(N4CCC[C@@H](N)C4)nccn23)cc1 [Example 3, (R)-4-(1-(3-aminopiperidin-1-yl)-6-(p-tolyl)pyrrolo[1,2-a]pyrazine-7-yl)benzonitrile] | 0.8 ± 0.08 nM | 34.2 nM | 
8 | Cc1ccc(-c2c(-c3ccc(C#N)cc3)cc3c(N4CCC[C@@H](N)C4)nncn23)cc1 [Example 4, (R)-4-(1-(3-aminopiperidin-1-yl)-6-(p-tolyl)pyrrolo[1,2-d] [1,2,4]triazine-7-yl)benzonitrile] | 2.3 ± 0.74 nM | 30.4 nM | 
9 | COc1cc(N2CCN(C)CC2)nc(-c2ccc(C#N)c(F)c2)c1-c1ccc(C)c(O)c1 [Example 100, 2-fluoro-4-(3-(3-hydroxy-4-methylphenyl)-4-methoxy-6-(4-methylpiperazin-1-yl)pyridin-2-yl) benzonitrile] | 8.9 ± 0.3 nM | 3.18 nM | 
10 | CC(C)(O)C#Cc1ccc(-c2c(-c3ccc(C#N)c(F)c3)nc(N3CCC(N)CC3)n3ccnc23)cc1F [Example 126, 4-(5-(4-aminopiperidin-1-yl)-8-(3-fluoro-4-(3-hydroxy-3-methyl-1-alkynyl-1-yl)phenyl)imidazolo[1,2-c]pyrimidin-7-yl)-2-fluorobenzonitrile hydrochloride] | 15.9 nM | 21.3 nM | 
11 | N#Cc1ccc(-c2nc(N3CCC(N)CC3)cc(O)c2-c2ccc(F)c(O)c2)cc1F [Example 58, 4-(6-(4-aminopiperidin-1-yl)-3-(4-fluoro-3-hydroxyphenyl)-4-hydroxypyridin-2-yl)-2-fluorobenzonitrile] | 1.3 ± 0.4 nM | 7.26 nM | 
12 | Cc1ccc(-c2c(-c3ccc(C#N)cc3)cc3c(N4CC(N)C4)nccn23)cc1 [Example 188, 4-(1-(3-aminoazetidin-1-yl)-6-(p-tolyl)pyrrolo[1,2-a]pyrazin-7-yl)benzonitrile hydrochloride] | 35 nM | > 1000 nM | 
13 | COc1ccc(-c2sc(N3CCC(N)CC3)nc2-c2ccc(C#N)c(F)c2)cc1O [Example 223, 4-(2-(4-aminopiperidin-1-yl)-5-(3-hydroxy-4-methoxyphenyl)thiazol-4-yl)-2-fluorobenzonitrile] | 0.1 ± 0.03 nM | 2.39 nM | 
14 | N#Cc1ccc(-c2nc(CCCN[C@@H]3C[C@H]3c3ccc(F)cc3)cc(C(=O)N3CCC(F)(F)CC3)n2)cc1 [Example 258, 4-(4-(4,4-difluoropiperidine-1-carbonyl)-6-(3-(((1R,2S)-2-(4-fluorophenyl)cyclopropyl)amino)propyl)pyrimidin-2-yl)benzonitrile hydrochloride] | 232 nM | 89.7 nM | 
15 | Cc1ccc(-c2c(-c3ccc(C#N)cc3)cc3c(N4CCN(C)CC4)nccn23)cc1 [Example 190, 4-(1-(4-methylpiperazin-1-yl)-6-(p-tolyl)pyrrolo [1,2-a]pyrazin-7-yl) benzonitrile] | 0.331 nM | 1120 nM | 
16 | CNC1CCCN(c2ccnn3c(-c4ccc(C)cc4)c(-c4ccc(C#N)cc4)cc23)C1 (stereo not shown) [Example 197, 4-(4-(3-(methylamino)piperidin-1-yl)-7-(p-tolyl)pyrrolo[1,2-b]pyridazin-6-yl]benzonitrile hydrochloride] |  | 24.2 nM | 9.44 ± 5.96 nM
17 | N#Cc1ccc(-c2nc(N3CCC(N)CC3)cc(O)c2-c2ccc(C#N)c(F)c2)cc1F [Example 48, 4,4′-(6-(4-aminopiperidin-1-yl)-4-hydroxypyridine-2,3-diyl)bis(2-fluorobenzonitrile)] | 57.8 nM | 290 nM | 
18 | CC(C)(O)COc1ccc(-c2cnc(N3CCC(N)CC3)c(C#N)c2-c2ccc(C#N)c(F)c2)cc1O [Example 86, hydrochloride] | 0.147 nM | 0.63 nM | 
19 | CC(C)(O)Cc1ccc(-c2c(O)cc(N3CCC(N)CC3)nc2-c2ccc(C#N)c(F)c2)c(F)c1 [Example 32, 4-(6-(4-aminopiperidin-1-yl)-3-(2-fluoro-4-(2-hydroxy-2-methylpropyl)phenyl)-4-hydroxypyridin-2-yl)-2-fluorobenzonitrile hydrochloride] | 48.8 nM | 262 nM | 
20 | CNC1CCCN(c2cc(O)c(-c3ccc(OC)c(F)c3)c(-c3ccc(C#N)c(F)c3)n2)C1 (stereo not shown) [Example 16, 2-fluoro-4-(3-(3-fluoro-4-methoxyphenyl)-4-hydroxy-6-(3-(methylamino)piperidin-1-yl)pyridin-2-yl)benzonitrile] | 15.2 ± 3.7 nM | 38 nM | 
21 | N#Cc1ccc(-c2nc(N3CCC(N)CC3)cc(O)c2-c2ccc(OC(F)(F)F)c(O)c2)cc1F [Example 29, 4-(6-(4-aminopiperidin-1-yl)-4-hydroxy-3-(3-hydroxy-4-(trifluoromethoxy)phenyl)pyridin-2-yl)-2-fluorobenzonitrile hydrochloride] | 3.38 nM | 11.8 nM | 
22 | COc1ccc(-c2c(O)cc(N3CC4CNCC4C3)nc2-c2ccc(C#N)c(F)c2)cc1F (stereo not shown) [Example 52, 2-fluoro-4-(3-(3-fluoro-4-methoxyphenyl)-6-(hexahydropyrrolo[3,4-c]pyrrole-2(1H)-yl)-4-hydroxypyridin-2-yl)benzonitrile hydrochloride] |  | 167 nM | 100 nM
23 | COc1ccc(-c2c(-c3ccc(C#N)c(F)c3)nc(N3CC4CCC3CC4N)n3ccnc23)cc1O (stereo not shown) [Example 166, 4-(5-(5-amino-2-azabicyclo [2.2.2]octane-2-yl)-8-(3-hydroxy-4-methoxyphenyl)imidazolo[1,2-c]pyrimidin-7-yl)-2-fluorobenzonitrile hydrochloride] | 1 ± 0.5 nM | 2.39 nM | 
